Article PMC8579695, “The Stringent Response Inhibits 70S Ribosome Formation in Staphylococcus aureus by Impeding GTPase-Ribosome Interactions” (mBio, 2021)

Tests used:
[1] = system: HflX binding to 50S ribosomes; test: Stopped-flow fluorescence kinetics of HflX-Atto488 association to 50S subunits; design: species or system Staphylococcus aureus
Description: FIG 3 Stopped-flow kinetic parameters of RA-GTPase association to the ribosomal subunits. (A) Schematic representation of the experimental setup for stopped-flow analysis. Nucleotides (brown circles), 50S subunits (orange oval), and Atto488-labeled RA-GTPases (purple hexagon) are indicated. Arrows indicate the direction of syringe movement. Atto-488 was excited using a 470-nm LED, and fluorescence was detected through a 515-nm long-pass filter. (B and C) Fluorescent change upon mixing 0.2 μM RbgA-Atto488 (B) or HflX-Atto488 (C) with 0.2 μM 50S ribosomal subunits in the presence of 100 μM GTP, ppGpp, and pppGpp or in the apo state using the stopped-flow fluorescence apparatus. Fluorescently labeled protein was also mixed with buffer lacking 50S subunits as a mixing control. Fluorescence of the reaction was tracked using exponential sampling for 10 s, and each curve represents the mean average of at least five technical replicates. (D) kapp1 dependence on 50S concentration for HflX complexed with GTP (green), ppGpp (pink), and pppGpp (black). (E) Same as for panel D for the kapp2 dependence. (F and G) Sum and product analyses of apparent rates during HflX association to the 50S subunit. HflX-Atto488 (0.05 μM) was mixed with increasing titrations of 50S ribosomal subunits over the fluorescently labeled protein in the presence of 20 μM GTP or ppGpp. The resultant traces (see Fig. S4) were analyzed by nonlinear regression using two exponential terms. The sum (F) and product (G) of apparent rates (kapp1 [D] and kapp2 [E]) were plotted as a function of the total concentration of the 50S subunits and HflX protein to determine the microscopic constants k1, k-1, k2, and k-2 (Table 2) and the resulting dissociation constant (Kd) (see Materials and Methods). Error bars represent the standard deviations of the apparent rates of four or more individual traces (D and E) or the standard errors of the two-step analysis (F and G).
Next, we used a constant concentration of protein in the presence of 200-fold excess of each nucleotide and titrated it with increasing concentrations of ribosomal subunits (see Fig. S4). […]
For initial controls, 0.2 μM Atto-488-labeled proteins were rapidly mixed with 0.2 μM E. coli 50S ribosomal subunits (purified as described elsewhere) in TAKM7 buffer (25 mM Tris-HCl [pH 7.4], 70 mM ammonium acetate, 30 mM KCl, 7 mM MgCl2) using an SX20 stopped-flow apparatus (Applied Photophysics) in the presence or absence of GTP, ppGpp, and pppGpp. […] Atto-488 was excited using a 470-nm LED and fluorescence was detected through a 515-nm long-pass filter. Reactions were monitored for 10 s, with 1,000 total data points per reaction. Each condition was subject to at least five technical repeats, with curves representing the mean average fluorescence of the technical repeats. […]

[2] = system: RA-GTPases RsgA, RbgA, Era, and HflX; test: Hydrolysis of pppGpp by the RA-GTPases; assay type: biochemical, Staphylococcus aureus
From the text: It is well characterized that rRNA transcription decreases during the stringent response ([39]). In addition, the GTPase activity of ribosome assembly cofactors is inhibited by (p)ppGpp, both of which contribute to a reduction in mature ribosomes within the cell ([27]). To examine mechanistically how (p)ppGpp-GTPase interactions affect the ability of RA-GTPases to associate with ribosomal subunits, we examined the association of each GTPase to either the 30S or 50S ribosomal subunit in the presence of GDP, GTP, ppGpp, and pppGpp, as well as GMPPNP, a nonhydrolyzable analogue of GTP. […] His-tagged GTPases were preincubated with highly pure, salt-washed 70S S. aureus ribosomes in a low-magnesium buffer to encourage ribosomal subunit dissociation, and the amount of each GTPase associated with each of the subunits was quantified by Western immunoblotting with anti-His antibodies after sucrose gradient separation. […]
GTPase activity assays were performed as previously described ([10]). […] The radioactive spots were exposed to a BAS-MS imaging plate (Fujifilm) and visualized using an LA 7000 Typhoon PhosphorImager (GE Healthcare), and images were quantified using ImageQuant (GE Healthcare).

| SMILES | reduction of the second, slow-phase reaction of HflX relative to GTP-bound [1] | kapp2 of HflX association to 50S ([1]; GTP: hyperbolic, plateau, ppGpp: independent of 50S concentration) | hydrolysis of pppGpp by the four RA-GTPases [2] |
| --- | --- | --- | --- |
| Nc1nc2c(ncn2[C@@H]2O[C@H](COP(=O)(O)OP(=O)(O)O)[C@@H](OP(=O)(O)OP(=O)(O)O)[C@H]2O)c(=O)[nH]1 [ppGpp] | 4 fold | 1.0 s⁻¹ |  |
| Nc1nc2c(ncn2[C@@H]2O[C@H](COP(=O)(O)OP(=O)(O)OP(=O)(O)O)[C@@H](OP(=O)(O)OP(=O)(O)O)[C@H]2O)c(=O)[nH]1 [pppGpp] |  |  | unable to hydrolyze |
